Assay results taken from a melting point compilation (Tetko et al.; mined from patent text by program, amines drawn as free bases though some values may be those of a salt).

melting point | SMILES
189 to 190 °C | CCc1cc(Cl)c(-n2ncc(C#N)c2N)c(Cl)c1
202 to 203 °C | CCc1c(Cc2[nH]c(Cc3[nH]c(C=O)c(C)c3CC)c(CC)c2CC)[nH]c(C=O)c1C
132 to 133 °C | Cc1oc(-c2ccccc2)nc1CCOc1ccc(/C=C/C=C/CO)cc1
161 to 162 °C | CC(C)Nc1cccnc1N1CCN(C(=O)c2ccc(C(=O)NC(C)(C)C)cn2)CC1
190 °C | CCn1c(=O)c2c(nc(/C=C/c3ccccc3OC)n2C)n(CC)c1=O
145 to 147 °C | Cc1oc2cc(C3CC(=O)OC(=O)C3)ccc2c1C
171 °C | CC(C)(C)OC(=O)NCC(=O)Nc1ccc(Nc2cccc3c2C(=O)c2ccccc2C3=O)cc1
226 °C | CC(F)C(C)(N)C(=O)O (stereo not drawn)
110 to 112 °C | COC(=O)[C@@H]1CCCN1C(=O)Nc1cc(Cl)cc(Cl)c1
224 °C | CC(C)Oc1nsc(NC(=O)C(C)C)c1C#N
42 to 43 °C | Cc1c(N(C)C)ccc([N+](=O)[O-])c1CO
275 to 276 °C | CCNc1nc2c(ccc3[nH]c4cnc(C(=O)OC(C)C)c(CC)c4c32)s1
69 to 71 °C | CN(C)C(=O)CCCCCCCCCCCCO
117 to 118 °C | CC1CCN2C(=O)c3ccccc3NC(=O)C12 (stereo not drawn)
260 °C | O=C(O)CC(=O)Nc1c(-c2ccccc2)c(=O)[nH]c2cc(Cl)ccc12
125 to 129 °C | COc1cccc(CCC(C(=O)c2ccc(O)cc2)c2ccccc2)c1 (stereo not drawn)
256 to 257 °C | Cn1nc2c(N)nc3ccccc3c2c1CC(C)(C)O
260 to 261 °C | CCn1c(C(C#N)c2cc(C)cc(C#N)c2)c(C(C)C)c(=O)[nH]c1=O (stereo not drawn)
157 to 159 °C | C/C(NCc1ccccc1)=C(\C#N)C(N)=S
242 °C | COc1cc(N)c(Cl)cc1C(=O)Cl
164 to 166 °C | COc1ccc(OC)c(NC(=O)NCC2(c3ccccc3)CCCCC2)c1

melting point | SMILES
157 to 159 °C | COC(=O)c1ccc(-c2n[nH]c3ccccc23)o1
60 to 63 °C | CCOP(=O)(/C=C/c1cn(-c2ccccc2)nc1OCc1ccc(OCc2nc(-c3ccco3)oc2C)c(OC)c1)OCC
88 to 90 °C | Cc1noc(C)c1C(C)(O)c1ccoc1 (stereo not drawn)
201 to 203 °C | CCC(NC(=O)OC)c1ccc(Cl)c2nc3n(c12)CCCN3c1ccc(Cl)cc1Cl (stereo not drawn)
89 to 91 °C | O=C(Cl)c1cc(C(=O)Cl)[nH]n1
197 to 198 °C | NC(=O)COc1ccc2sc(S(N)(=O)=O)cc2c1
129 to 130 °C | CN1CCN(c2cccc(Nc3ccc(-c4ccoc4)cc3N)c2)CC1
43 to 45 °C | CC(=O)OCC(=O)c1ccc(C)cc1C
100 to 101 °C | Cc1cc(-c2ccccc2)c2ccccc2n1
131 to 132 °C | c1cn(-c2ccnc(-n3ccnc3)n2)cn1
163 to 164 °C | CC(=O)c1ccc(Cn2c3c(c4cc(F)cc(F)c42)CCCC3CC(=O)O)cc1 (stereo not drawn)
218 to 220 °C | CC(C)(c1ccc2ncccc2c1)n1nnc2ccc(-c3cn[nH]c3)nc21
82 °C | CCCN(C(=S)NC(=O)c1ccccc1)C(CO)c1ccccc1 (stereo not drawn)
65 to 66.5 °C | CC1(C)CC(O)CC(C)(C)N1OC1C=CCCC1 (stereo not drawn)
138 to 139 °C | CC(=NOCCOc1ccc(CC2SC(=O)NC2=O)cc1)c1ccc2ccccc2c1 (stereo not drawn)
76.5 to 79 °C | CCc1cc2c(Sc3ccccn3)ncnc2s1
197 to 199 °C | CN(C)c1ccc2sc(S(N)(=O)=O)cc2c1
118 to 119 °C | CCC(O)(CC(N)=O)c1ccc(Br)cc1 (stereo not drawn)
125 to 126 °C | COCc1c(-c2ccno2)ncc2[nH]c3ccc(OCc4ccccc4)cc3c12
> 250 °C | COc1ccc2ncc(C#N)c(Nc3ccc4nn[nH]c4c3)c2c1

SMILES | melting point
Cc1c(C(=O)O)nnn1Cc1ccccc1Cl | 186 to 187 °C
CC12CCC3C(CC=C4CC(O[Si](C)(C)C(C)(C)C)CCC43C)C1CCC2=O (stereo not drawn) | 146 to 148 °C
